Source: PubChem BioAssay (NCI)
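1) Cells in 96-well plates. 2) Compound, 48 h, 5 concentrations. 3) Linear interpolation between surrounding doses. 4) Unreached endpoint = highest concentration. At the GI50, growth is halved. TGI is the concentration that stops growth completely.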

What was measured:
Assay in all cases: DTP human tumour cell line panel, 48 h
HCT-116 colon = tested on: HCT-116 colon
IGROV1 ovarian = tested on: IGROV1 ovarian
CAKI-1 renal = tested on: CAKI-1 renal
NCI-H522 lung = tested on: NCI-H522 lung
HCT-15 colon = tested on: HCT-15 colon
DU-145 prostate = tested on: DU-145 prostate
A549 NSCLC = tested on: A549 NSCLC
SK-OV-3 ovarian = tested on: SK-OV-3 ovarian
SR leukemia = tested on: SR leukemia
SNB-19 CNS = tested on: SNB-19 CNS
U251 CNS = tested on: U251 CNS
EKVX NSCLC = tested on: EKVX NSCLC
SK-MEL-5 melanoma = tested on: SK-MEL-5 melanoma
OVCAR-3 ovarian = tested on: OVCAR-3 ovarian
K-562 leukemia = tested on: K-562 leukemia
SF-295 CNS = tested on: SF-295 CNS
RPMI-8226 leukemia = tested on: RPMI-8226 leukemia
MDA-MB-435 = tested on: MDA-MB-435
HOP-92 NSCLC = tested on: HOP-92 NSCLC
SW-620 colon = tested on: SW-620 colon
ACHN renal = tested on: ACHN renal
LOX IMVI melanoma = tested on: LOX IMVI melanoma
OVCAR-8 ovarian = tested on: OVCAR-8 ovarian
786-0 renal = tested on: 786-0 renal
NCI/ADR-RES ovarian = tested on: NCI/ADR-RES ovarian
PC-3 prostate = tested on: PC-3 prostate
OVCAR-5 ovarian = tested on: OVCAR-5 ovarian
NCI-H460 lung = tested on: NCI-H460 lung
MCF7 breast = tested on: MCF7 breast
UACC-62 melanoma = tested on: UACC-62 melanoma
OVCAR-4 ovarian = tested on: OVCAR-4 ovarian
HOP-62 NSCLC = tested on: HOP-62 NSCLC
HCC-2998 colon = tested on: HCC-2998 colon
MOLT-4 leukemia = tested on: MOLT-4 leukemia
T-47D breast = tested on: T-47D breast
SN12C renal = tested on: SN12C renal
MALME-3M melanoma = tested on: MALME-3M melanoma
M14 melanoma = tested on: M14 melanoma
HT29 colon = tested on: HT29 colon
SK-MEL-2 melanoma = tested on: SK-MEL-2 melanoma
KM12 colon = tested on: KM12 colon
COLO 205 colon = tested on: COLO 205 colon
HS 578T breast = tested on: HS 578T breast
RXF 393 renal = tested on: RXF 393 renal
SK-MEL-28 melanoma = tested on: SK-MEL-28 melanoma
UO-31 renal = tested on: UO-31 renal
SF-539 CNS = tested on: SF-539 CNS
NCI-H226 lung = tested on: NCI-H226 lung
SNB-75 CNS = tested on: SNB-75 CNS
A498 renal = tested on: A498 renal
TK-10 renal = tested on: TK-10 renal
BT-549 breast = tested on: BT-549 breast
CCRF-CEM leukemia = tested on: CCRF-CEM leukemia
UACC-257 melanoma = tested on: UACC-257 melanoma
NCI-H23 lung = tested on: NCI-H23 lung
MDA-MB-231 breast = tested on: MDA-MB-231 breast
SF-268 CNS = tested on: SF-268 CNS
HL-60(TB) leukemia = tested on: HL-60(TB) leukemia

Work on `CCOC(=O)C1=CCCC[C@H]1S(=O)(=O)Nc1ccc(F)cc1Cl` yielded a GI50 (HCT-116 colon) of 25 µM, a TGI (HCT-116 colon) of 95.3 µM and a GI50 (IGROV1 ovarian) of 31 µM. It also gave a TGI (IGROV1 ovarian) greater than 100 µM, a GI50 (CAKI-1 renal) of 31.5 µM and a TGI (CAKI-1 renal) greater than 100 µM. For the same molecule, the GI50 (NCI-H522 lung) was 23.1 µM, the TGI (NCI-H522 lung) was 90.1 µM and the GI50 (HCT-15 colon) was 20.3 µM. For the same molecule, the TGI (HCT-15 colon) was greater than 100 µM, the GI50 (DU-145 prostate) was 25.4 µM and the TGI (DU-145 prostate) was greater than 100 µM. For the same molecule, the GI50 (A549 NSCLC) was 35.4 µM, the TGI (A549 NSCLC) was greater than 100 µM and the GI50 (SK-OV-3 ovarian) was 47.6 µM. The TGI (SK-OV-3 ovarian) was greater than 100 µM, the GI50 (SR leukemia) was 23.9 µM and the TGI (SR leukemia) was greater than 100 µM. The GI50 (SNB-19 CNS) was 29.4 µM, the TGI (SNB-19 CNS) was greater than 100 µM and the GI50 (U251 CNS) was 24.7 µM. The TGI (U251 CNS) was greater than 100 µM, the GI50 (EKVX NSCLC) was 26.8 µM and the TGI (EKVX NSCLC) was greater than 100 µM. The GI50 (SK-MEL-5 melanoma) was 10.5 µM, the TGI (SK-MEL-5 melanoma) was 24.5 µM and the GI50 (OVCAR-3 ovarian) was 23.2 µM. It also gave a TGI (OVCAR-3 ovarian) of 77.3 µM, a GI50 (K-562 leukemia) of 26.4 µM and a TGI (K-562 leukemia) greater than 100 µM. For the same molecule, the GI50 (SF-295 CNS) was 32.7 µM, the TGI (SF-295 CNS) was greater than 100 µM and the GI50 (RPMI-8226 leukemia) was 20.5 µM. The TGI (RPMI-8226 leukemia) was 67.6 µM, the GI50 (MDA-MB-435) was 21.1 µM and the TGI (MDA-MB-435) was 69.9 µM. The GI50 (HOP-92 NSCLC) was 15.1 µM, the TGI (HOP-92 NSCLC) was 58.3 µM and the GI50 (SW-620 colon) was 30 µM. It also gave a TGI (SW-620 colon) greater than 100 µM, a GI50 (ACHN renal) of 29 µM and a TGI (ACHN renal) greater than 100 µM. The GI50 (LOX IMVI melanoma) was 22.7 µM, the TGI (LOX IMVI melanoma) was greater than 100 µM and the GI50 (OVCAR-8 ovarian) was 27.9 µM. The TGI (OVCAR-8 ovarian) was greater than 100 µM, the GI50 (786-0 renal) was 32.9 µM and the TGI (786-0 renal) was greater than 100 µM. For the same molecule, the GI50 (NCI/ADR-RES ovarian) was 33.9 µM, the TGI (NCI/ADR-RES ovarian) was greater than 100 µM and the GI50 (PC-3 prostate) was 34 µM. For the same molecule, the TGI (PC-3 prostate) was greater than 100 µM, the GI50 (OVCAR-5 ovarian) was 25 µM and the TGI (OVCAR-5 ovarian) was 77.1 µM. The GI50 (NCI-H460 lung) was 22.4 µM, the TGI (NCI-H460 lung) was 82.1 µM and the GI50 (MCF7 breast) was 19.9 µM. It also gave a TGI (MCF7 breast) greater than 100 µM, a GI50 (UACC-62 melanoma) of 19.1 µM and a TGI (UACC-62 melanoma) of 72.7 µM. It also gave a GI50 (OVCAR-4 ovarian) of 31.2 µM, a TGI (OVCAR-4 ovarian) greater than 100 µM and a GI50 (HOP-62 NSCLC) of 25.5 µM. It also gave a TGI (HOP-62 NSCLC) greater than 100 µM, a GI50 (HCC-2998 colon) of 31.2 µM and a TGI (HCC-2998 colon) greater than 100 µM. It also gave a GI50 (MOLT-4 leukemia) of 27.3 µM, a TGI (MOLT-4 leukemia) of 92.2 µM and a GI50 (T-47D breast) of 16.6 µM. It also gave a TGI (T-47D breast) greater than 100 µM, a GI50 (SN12C renal) of 24.5 µM and a TGI (SN12C renal) of 94.5 µM. For the same molecule, the GI50 (MALME-3M melanoma) was 24.4 µM, the TGI (MALME-3M melanoma) was 85.2 µM and the GI50 (M14 melanoma) was 25.5 µM. It also gave a TGI (M14 melanoma) of 96.7 µM, a GI50 (HT29 colon) of 41.1 µM and a TGI (HT29 colon) greater than 100 µM. For the same molecule, the GI50 (SK-MEL-2 melanoma) was 21 µM, the TGI (SK-MEL-2 melanoma) was 83.8 µM and the GI50 (KM12 colon) was 27.1 µM. It also gave a TGI (KM12 colon) greater than 100 µM, a GI50 (COLO 205 colon) of 38.2 µM and a TGI (COLO 205 colon) greater than 100 µM. For the same molecule, the GI50 (HS 578T breast) was 20.3 µM, the TGI (HS 578T breast) was 89.3 µM and the GI50 (RXF 393 renal) was 13.2 µM. For the same molecule, the TGI (RXF 393 renal) was 61.9 µM, the GI50 (SK-MEL-28 melanoma) was 28 µM and the TGI (SK-MEL-28 melanoma) was greater than 100 µM. For the same molecule, the GI50 (UO-31 renal) was 20.8 µM, the TGI (UO-31 renal) was greater than 100 µM and the GI50 (SF-539 CNS) was 22.8 µM. It also gave a TGI (SF-539 CNS) of 55.2 µM, a GI50 (NCI-H226 lung) of 26.7 µM and a TGI (NCI-H226 lung) greater than 100 µM. The GI50 (SNB-75 CNS) was 25.1 µM, the TGI (SNB-75 CNS) was greater than 100 µM and the GI50 (A498 renal) was 42.6 µM. It also gave a TGI (A498 renal) greater than 100 µM, a GI50 (TK-10 renal) of 33 µM and a TGI (TK-10 renal) greater than 100 µM. It also gave a GI50 (BT-549 breast) of 19.6 µM, a TGI (BT-549 breast) of 61 µM and a GI50 (CCRF-CEM leukemia) of 21.4 µM. It also gave a TGI (CCRF-CEM leukemia) of 84.9 µM, a GI50 (UACC-257 melanoma) of 35.8 µM and a TGI (UACC-257 melanoma) greater than 100 µM. The GI50 (NCI-H23 lung) was 26.6 µM, the TGI (NCI-H23 lung) was greater than 100 µM and the GI50 (MDA-MB-231 breast) was 28.4 µM. For the same molecule, the TGI (MDA-MB-231 breast) was 98.6 µM, the GI50 (SF-268 CNS) was 24.6 µM and the TGI (SF-268 CNS) was greater than 100 µM. It also gave a GI50 (HL-60(TB) leukemia) of 15.7 µM and a TGI (HL-60(TB) leukemia) of 47.9 µM.
